ChEMBL document CHEMBL1126229, “Enol lactone derivatives as inhibitors of human neutrophil elastase and trypsin-like proteases” (Bioorg Med Chem Lett, 1992)
Blank lines part the entries; values can stand above or below the compound they belong to.

How the values were obtained:
[1] = target: T1, Neutrophil elastase (Homo sapiens) (UniProt P08246); assay: Specificity constant on human neutrophil elastase was determined at 18 percent and at 26 minutes for maximum inhibition and no enzyme activity was recovered over the 2 h-time
T1 sequence (whole entry): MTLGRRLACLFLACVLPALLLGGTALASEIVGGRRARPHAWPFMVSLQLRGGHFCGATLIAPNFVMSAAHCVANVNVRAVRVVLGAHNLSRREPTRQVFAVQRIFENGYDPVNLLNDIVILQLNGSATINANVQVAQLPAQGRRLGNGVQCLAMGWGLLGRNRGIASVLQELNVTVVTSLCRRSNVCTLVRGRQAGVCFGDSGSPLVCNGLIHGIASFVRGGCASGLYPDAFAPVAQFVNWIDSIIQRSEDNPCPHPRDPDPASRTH

[2] = target: T1, Neutrophil elastase (Homo sapiens); assay: Rate constant of acylation on human neutrophil elastase was determined at 18 percent and at 26 minutes for maximum inhibition and no enzyme activity was recovered over the 2 h-time
[3] = target: T1, Neutrophil elastase (Homo sapiens); assay: Binding constant on human neutrophil elastase was determined at 18 percent and at 26 minutes for maximum inhibition and no enzyme activity was recovered over the 2 h-time
[4] = target: T2, Chymotrypsin-like elastase family member 2A (Sus scrofa) (UniProt P08419); assay: Rate constant of acylation on porcine pancreatic elastase was determined at 60 percent and at 30 minutes for maximum inhibition and no enzyme activity was recovered over the 2 h-time
T2 sequence (whole entry): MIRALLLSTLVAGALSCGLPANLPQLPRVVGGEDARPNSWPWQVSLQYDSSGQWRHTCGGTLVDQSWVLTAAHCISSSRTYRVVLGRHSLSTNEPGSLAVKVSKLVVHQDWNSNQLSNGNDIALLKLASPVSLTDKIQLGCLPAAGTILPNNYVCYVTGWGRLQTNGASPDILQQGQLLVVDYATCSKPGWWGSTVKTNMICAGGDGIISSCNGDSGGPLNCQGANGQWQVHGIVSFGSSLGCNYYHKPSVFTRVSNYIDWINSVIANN

[5] = target: T2, Chymotrypsin-like elastase family member 2A (Sus scrofa); assay: Specificity constant on porcine pancreatic elastase was determined at 60 percent and at 30 minutes for maximum inhibition and no enzyme activity was recovered over the 2 h-time
[6] = target: T2, Chymotrypsin-like elastase family member 2A (Sus scrofa); assay: Binding constant on porcine pancreatic elastase was determined at 60 percent and at 30 minutes for maximum inhibition and no enzyme activity was recovered over the 2 h-time
[7] = target: T1, Neutrophil elastase (Homo sapiens); assay: Specificity constant on human neutrophil elastase was determined at 20 percent and at 99 minutes for maximum inhibition and no enzyme activity was recovered over the 2 h-time
[8] = target: T1, Neutrophil elastase (Homo sapiens); assay: Rate constant of acylation on human neutrophil elastase was determined at 20 percent and at 99 minutes for maximum inhibition and no enzyme activity was recovered over the 2 h-time
[9] = target: T1, Neutrophil elastase (Homo sapiens); assay: Binding constant on human neutrophil elastase was determined at 20 percent and at 99 minutes for maximum inhibition and no enzyme activity was recovered over the 2 h-time
[10] = target: T2, Chymotrypsin-like elastase family member 2A (Sus scrofa); assay: Rate constant of acylation on porcine pancreatic elastase was determined at 30 percent and at 99 minutes for maximum inhibition and no enzyme activity was recovered over the 2 h-time
[11] = target: T2, Chymotrypsin-like elastase family member 2A (Sus scrofa); assay: Specificity constant on porcine pancreatic elastase was determined at 30 percent and at 99 minutes for maximum inhibition and no enzyme activity was recovered over the 2 h-time
Serine protease 1 [12] = target: T3, Serine protease 1 (Homo sapiens, UniProt P07477); assay: Binding constant on trypsin was determined
T3 sequence (P07477 whole entry): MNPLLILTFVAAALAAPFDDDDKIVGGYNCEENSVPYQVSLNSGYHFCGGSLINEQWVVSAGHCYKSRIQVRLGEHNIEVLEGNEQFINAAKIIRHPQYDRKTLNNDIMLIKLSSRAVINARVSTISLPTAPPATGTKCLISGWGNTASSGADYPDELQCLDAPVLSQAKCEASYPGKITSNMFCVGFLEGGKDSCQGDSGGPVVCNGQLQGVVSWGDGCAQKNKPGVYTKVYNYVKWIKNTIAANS

Serine protease 1 [13] = target: T3, Serine protease 1; assay: Rate constant of acylation on trypsin was determined
Serine protease 1 [14] = target: T3, Serine protease 1; assay: Specificity constant on trypsin was determined
[15] = target: Chymotrypsinogen A (Bos taurus) (UniProt P00766); assay: Binding constant on alpha-chymotrypsin was determined
[16] = target: Chymotrypsinogen A (Bos taurus) (UniProt P00766); assay: Rate constant of acylation on alpha-chymotrypsin was determined
[17] = target: Chymotrypsinogen A (Bos taurus) (UniProt P00766); assay: Specificity constant on alpha-chymotrypsin was determined
[18] = target: T2, Chymotrypsin-like elastase family member 2A (Sus scrofa); assay: Binding constant on porcine pancreatic elastase was determined at 30 percent and at 99 minutes for maximum inhibition and no enzyme activity was recovered over the 2 h-time
[19] = target: T1, Neutrophil elastase (Homo sapiens); assay: Specificity constant on human neutrophil elastase was determined at 90 percent and at 93 minutes for maximum inhibition and no enzyme activity was recovered over the 2 h-time
[20] = target: T1, Neutrophil elastase (Homo sapiens); assay: Rate constant of acylation on human neutrophil elastase was determined at 90 percent and at 93 minutes for maximum inhibition and no enzyme activity was recovered over the 2 h-time
[21] = target: T1, Neutrophil elastase (Homo sapiens); assay: Binding constant on human neutrophil elastase was determined at 90 percent and at 93 minutes for maximum inhibition and no enzyme activity was recovered over the 2 h-time
Serine protease 1 [22] = target: T3, Serine protease 1; assay: Binding constant on trypsin was determined at 10 percent and at 95 minutes for maximum inhibition and no enzyme activity was recovered over the 2 h-time
Serine protease 1 [23] = target: T3, Serine protease 1; assay: Rate constant of acylation on trypsin was determined at 10 percent and at 95 minutes for maximum inhibition and no enzyme activity was recovered over the 2 h-time
[24] = target: Chymotrypsinogen A (Bos taurus) (UniProt P00766); assay: Specificity constant on alpha-chymotrypsin was determined at 10 percent and at 99 minutes for maximum inhibition and no enzyme activity was recovered over the 2 h-time
Serine protease 1 [25] = target: T3, Serine protease 1; assay: Specificity constant on trypsin was determined at 10 percent and at 95 minutes for maximum inhibition and no enzyme activity was recovered over the 2 h-time
[26] = target: Chymotrypsinogen A (Bos taurus) (UniProt P00766); assay: Binding constant on alpha-chymotrypsin was determined at 10 percent and at 99 minutes for maximum inhibition and no enzyme activity was recovered over the 2 h-time
[27] = target: Chymotrypsinogen A (Bos taurus) (UniProt P00766); assay: Rate constant of acylation on alpha-chymotrypsin was determined at 10 percent and at 99 minutes for maximum inhibition and no enzyme activity was recovered over the 2 h-time
Plasminogen [28] = target: T4, Plasminogen (Homo sapiens, UniProt P00747); assay: Binding constant on plasmin was determined at 0 percent and at 98 minutes for maximum inhibition and no enzyme activity was recovered over the 2 h-time
T4 sequence (P00747 97-580 limits assumed): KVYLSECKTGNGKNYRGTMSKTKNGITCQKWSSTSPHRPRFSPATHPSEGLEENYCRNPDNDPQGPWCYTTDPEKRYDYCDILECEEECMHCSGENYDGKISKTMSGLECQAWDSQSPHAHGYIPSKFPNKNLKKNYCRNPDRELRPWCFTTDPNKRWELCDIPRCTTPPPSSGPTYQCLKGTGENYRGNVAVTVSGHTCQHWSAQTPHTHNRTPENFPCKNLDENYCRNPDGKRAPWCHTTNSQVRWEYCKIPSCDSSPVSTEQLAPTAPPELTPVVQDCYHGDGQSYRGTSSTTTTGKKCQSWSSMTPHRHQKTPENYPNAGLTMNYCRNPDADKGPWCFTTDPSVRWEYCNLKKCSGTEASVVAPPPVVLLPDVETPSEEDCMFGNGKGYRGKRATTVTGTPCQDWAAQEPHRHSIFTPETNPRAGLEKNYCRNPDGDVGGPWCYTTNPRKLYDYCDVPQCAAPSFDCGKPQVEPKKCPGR
T4 sequence (P00747 581-810 limits assumed): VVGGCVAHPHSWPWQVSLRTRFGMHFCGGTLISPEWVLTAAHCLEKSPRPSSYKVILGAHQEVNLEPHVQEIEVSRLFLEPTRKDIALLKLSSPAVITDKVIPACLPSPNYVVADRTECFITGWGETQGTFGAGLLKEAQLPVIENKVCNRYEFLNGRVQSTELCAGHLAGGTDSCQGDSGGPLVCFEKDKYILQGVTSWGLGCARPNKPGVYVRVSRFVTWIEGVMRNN

[29] = target: Tissue-type plasminogen activator (Homo sapiens) (UniProt P00750); assay: Binding constant on Tissue type plasminogen activator was determined at 15 percent and at 90 minutes for maximum inhibition and no enzyme activity was recovered over the 2 h-time
Sequence of Tissue-type plasminogen activator (Homo sapiens) (P00750 36-562 limits assumed): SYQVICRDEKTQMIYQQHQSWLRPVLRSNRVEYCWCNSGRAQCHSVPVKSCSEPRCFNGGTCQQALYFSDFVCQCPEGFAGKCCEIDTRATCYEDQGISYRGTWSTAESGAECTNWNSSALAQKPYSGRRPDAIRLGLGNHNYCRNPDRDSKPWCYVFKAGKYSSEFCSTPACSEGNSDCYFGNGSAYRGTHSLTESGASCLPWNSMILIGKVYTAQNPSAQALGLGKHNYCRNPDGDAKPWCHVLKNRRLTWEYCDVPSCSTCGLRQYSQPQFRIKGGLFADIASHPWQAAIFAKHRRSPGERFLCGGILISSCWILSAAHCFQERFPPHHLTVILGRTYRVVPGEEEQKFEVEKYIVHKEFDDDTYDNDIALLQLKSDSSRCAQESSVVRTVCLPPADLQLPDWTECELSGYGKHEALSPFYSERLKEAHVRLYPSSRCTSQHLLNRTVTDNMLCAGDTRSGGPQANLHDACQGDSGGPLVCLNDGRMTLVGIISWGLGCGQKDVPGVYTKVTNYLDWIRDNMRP

Prothrombin [30] = target: T5, Prothrombin (Homo sapiens, UniProt P00734); assay: Binding constant on thrombin was determined at 15 percent and at 98 minutes for maximum inhibition and no enzyme activity was recovered over the 2 h-time
Prothrombin [31] = target: T5, Prothrombin; assay: Rate constant of deacylation for thrombin
Serine protease 1 [32] = target: T3, Serine protease 1; assay: Binding constant on trypsin was determined at 0 percent and at 99 minutes for maximum inhibition and no enzyme activity was recovered over the 2 h-time
Serine protease 1 [33] = target: T3, Serine protease 1; assay: Rate constant of acylation on trypsin was determined at 0 percent and at 99 minutes for maximum inhibition and no enzyme activity was recovered over the 2 h-time
Serine protease 1 [34] = target: T3, Serine protease 1; assay: Specificity constant on trypsin was determined at 0 percent and at 99 minutes for maximum inhibition and no enzyme activity was recovered over the 2 h-time
Plasminogen [35] = target: T4, Plasminogen
Plasminogen [36] = target: T4, Plasminogen; remark: listed apart in the source
Prothrombin [37] = target: T5, Prothrombin
Prothrombin [38] = target: T5, Prothrombin; remark: listed apart in the source
[39] = target: Tissue-type plasminogen activator (Homo sapiens) (UniProt P00750)
[40] = target: T6, Urokinase-type plasminogen activator (Homo sapiens, UniProt P00749)
[41] = target: T6, Urokinase-type plasminogen activator; remark: listed apart in the source
Description: Specificity constant on Urokinase-type plasminogen activator was determined at 0 percent and at 91 minutes for maximum inhibition and no enzyme activity was recovered over the 2 h-time

Plasminogen [42] = target: T4, Plasminogen; assay: Rate constant of deacylation for plasmin; Fast and could not be measured
[43] = target: T6, Urokinase-type plasminogen activator; assay: Rate constant of deacylation for Urokinase-type plasminogen activator
Serine protease 1 [44] = target: T3, Serine protease 1; assay: Rate constant of deacylation for trypsin

ka/Ki [1]: 667 M⁻¹ s⁻¹
ka [2]: 1.8 min⁻¹
Ks/i [3]: 43.5 µM
ka [4]: 0.43 min⁻¹
ka/Ki [5]: 33.3 M⁻¹ s⁻¹
Ks/i [6]: 284 µM
SMILES: CC1(C)CC(=O)O/C(=C/Br)C1

ka/Ki [7]: 37500 M⁻¹ s⁻¹
ka [8]: 0.18 min⁻¹
Ks/i [9]: 0.08 µM
ka [10]: 0.28 min⁻¹
ka/Ki [11]: 83.3 M⁻¹ s⁻¹
Ks/i (Serine protease 1 [12]): 65 µM
ka (Serine protease 1 [13]): 2.4 min⁻¹
ka/Ki (Serine protease 1 [14]): 667 M⁻¹ s⁻¹
Ks/i [15]: 2.3 µM
ka [16]: 1.6 min⁻¹
ka/Ki [17]: 11700 M⁻¹ s⁻¹
Ks/i [18]: 58.8 µM
SMILES: CC(C)C1CC/C(=C/Br)OC1=O (configuration not stated)

ka/Ki [19]: 14500 M⁻¹ s⁻¹
ka [20]: 0.67 min⁻¹
Ks/i [21]: 0.77 µM
ka [10]: 0.52 min⁻¹
ka/Ki [11]: 333 M⁻¹ s⁻¹
Ks/i (Serine protease 1 [22]): 44 µM
ka (Serine protease 1 [23]): 1.8 min⁻¹
ka/Ki [24]: 10000 M⁻¹ s⁻¹
ka/Ki (Serine protease 1 [25]): 667 M⁻¹ s⁻¹
Ks/i [26]: 9.8 µM
ka [27]: 6 min⁻¹
Ks/i [18]: 26.9 µM
SMILES: CC(C)C1CC/C(=C\Br)OC1=O (configuration not stated)

Ks/i (Plasminogen [28]): 1.19 µM
Ks/i [29]: 0.12 µM
Ks/i (Prothrombin [30]): 14.8 µM
Kd (Prothrombin [31]): 0.000217 s⁻¹
Ks/i (Serine protease 1 [32]): 0.08 µM
ka (Serine protease 1 [33]): 18.4 min⁻¹
ka/Ki (Serine protease 1 [34]): 3.83e+06 M⁻¹ s⁻¹
ka (Plasminogen [35]): 10.2 min⁻¹
ka/Ki (Plasminogen [36]): 150000 M⁻¹ s⁻¹
ka (Prothrombin [37]): 27.2 min⁻¹
ka/Ki (Prothrombin [38]): 33300 M⁻¹ s⁻¹
ka [39]: Not measurable
ka [40]: 7.56 min⁻¹
ka/Ki [41]: 1.26e+07 M⁻¹ s⁻¹
SMILES: N=C(N)NCc1ccc(C2CC/C(=C\I)OC2=O)cc1 (configuration not stated)

Kd (Plasminogen [42]): Not measurable
Kd [43]: 0.00015 s⁻¹
Kd (Serine protease 1 [44]): 3.3e-05 s⁻¹
SMILES: C=C1CC(c2ccc(NC(=N)N)cc2)CC(=O)O1 (configuration not stated)
